Experimental data as given in patent US20080009418A1, “Selective Inhibitors” (Alchemia LTD., priority 2004, published 2008).

Legend:
[1] = target: T1, Mouse urotensin (mUR2) (Mus musculus, UniProt Q8VIH9); assay: Radioligand binding, mouse urotensin mUR2 membranes, FlashPlate, [125I]-Urotensin II; conditions: compound at 10 μM; [125I]-Urotensin II
T1 construct: purchased Perkin Elmer Biosignal
T1 sequence (Q8VIH9 1-385): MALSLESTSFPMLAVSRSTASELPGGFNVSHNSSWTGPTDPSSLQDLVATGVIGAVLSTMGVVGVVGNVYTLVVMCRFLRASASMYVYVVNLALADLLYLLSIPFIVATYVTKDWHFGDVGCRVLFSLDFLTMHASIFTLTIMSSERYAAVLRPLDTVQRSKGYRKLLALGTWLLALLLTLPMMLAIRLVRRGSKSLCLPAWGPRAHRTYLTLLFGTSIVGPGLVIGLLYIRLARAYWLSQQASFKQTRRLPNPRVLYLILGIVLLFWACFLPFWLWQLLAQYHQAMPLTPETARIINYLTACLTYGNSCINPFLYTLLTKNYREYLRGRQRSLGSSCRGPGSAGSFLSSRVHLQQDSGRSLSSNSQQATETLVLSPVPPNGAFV
In short: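 Cloned mouse urotensin (mUR2) receptor membranes from Perkin Elmer Biosignal were immobilized in FlashPlate microplates using a proprietary coating. Each well got 19.5 μl buffer, then 0.5 μl of DMSO, reference ligand, or compound. Adding 5 μl of [125I]-Urotensin II, diluted to 5× final concentration in binding buffer, started binding. Plates were sealed with TopSeal-A and incubated 1 hour at room temperature in the dark. Wells were counted for 30 seconds each on a TopCount after a 60-second delay, and percentage inhibition was calculated.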

[2] = target: T2, Human δ-opioid (DOP) (Homo sapiens, UniProt P41143); assay: Radioligand binding, human δ-opioid (DOP) membranes, FlashPlate, [3H]-Bremazocine; conditions: compound at 10 μM; [3H]-Bremazocine
T2 construct: purchased Perkin Elmer Biosignal
In short: (§1)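 Cloned human receptor membranes were coated onto FlashPlate wells and incubated with radioligand and compound (added from a 0.5 mM DMSO daughter plate) for 1 hour at room temperature in the dark. Scintillation counting gave percent inhibition, with DMSO defining total and reference ligand defining non-specific binding.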

[3] = target: T3, Human Melanocortin (MC4) (Homo sapiens, UniProt P32245); assay: Radioligand binding, human melanocortin MC4 membranes, FlashPlate, [125I]-NDP-αMSH; conditions: compound at 10 μM; [125I]-NDP-αMSH
T3 construct: purchased Perkin Elmer Biosignal
In short: as §1

[4] = target: T4, Human neuropeptide Y (NPY-Y1) (Homo sapiens, UniProt P25929); assay: Radioligand binding, human neuropeptide Y NPY-Y1 membranes, FlashPlate, [125I]-PYY; conditions: compound at 10 μM; [125I]-PYY
T4 construct: purchased Perkin Elmer Biosignal
T4 sequence (P25929 1-384): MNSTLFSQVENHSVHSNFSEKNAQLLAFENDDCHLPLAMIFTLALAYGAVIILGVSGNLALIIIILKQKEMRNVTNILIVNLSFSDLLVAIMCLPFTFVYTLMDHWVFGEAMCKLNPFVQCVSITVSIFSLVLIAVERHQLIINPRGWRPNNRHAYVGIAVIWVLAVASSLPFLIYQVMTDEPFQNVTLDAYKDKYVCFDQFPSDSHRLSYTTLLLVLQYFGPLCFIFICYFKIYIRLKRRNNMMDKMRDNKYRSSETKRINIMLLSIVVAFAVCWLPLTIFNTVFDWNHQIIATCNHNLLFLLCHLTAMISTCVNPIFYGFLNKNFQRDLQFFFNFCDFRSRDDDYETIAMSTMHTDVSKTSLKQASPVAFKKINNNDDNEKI
In short: as §1

[5] = target: T5, Human κ-Opioid (KOP) (Homo sapiens, UniProt P41145); assay: Radioligand binding, human κ-opioid (KOP) membranes, filtration, [3H]-Diprenorphine; conditions: compound at 10 μM; [3H]-Diprenorphine
T5 construct: purchased Perkin Elmer Biosignal
In short: (§2)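 Percent inhibition of radioligand binding measured on recombinant human membranes: NK1 with [125I]-Substance P, KOP with [3H]-Diprenorphine. Incubation 1 h at room temperature, then harvest onto 0.3% PEI-soaked filters, cold Tris-HCl pH 7.4 washes and scintillation counting; non-specific binding from reference ligand wells.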

[6] = target: T6, Human neurokinin (NK1) (Homo sapiens, UniProt P25103); assay: Radioligand binding, human neurokinin NK1 membranes, filtration, [125I]-Substance P; conditions: compound at 10 μM; [125I]-Substance P
T6 construct: purchased Perkin Elmer Biosignal
In short: as §2

[7] = target: T7, Human melanocortin (MC5) (Homo sapiens, UniProt P33032); assay: Radioligand binding, human melanocortin MC5 membranes, FlashPlate, [125I]-NDP-αMSH; conditions: compound at 10 μM; [125I]-NDP-αMSH
T7 construct: purchased Perkin Elmer Biosignal
In short: as §1

[8] = target: T8, Human Melanocortin (MC3) (Homo sapiens, UniProt P41968); assay: Radioligand binding, human melanocortin MC3 membranes, FlashPlate, [125I]-NDP-αMSH; conditions: compound at 10 μM; [125I]-NDP-αMSH
T8 construct: purchased Perkin Elmer Biosignal
In short: as §1

[9] = target: T9, Human opioid (ORL1) (Homo sapiens, UniProt P41146); assay: Radioligand binding, human opioid ORL1 membranes, FlashPlate, [125I]-Nociceptin; conditions: compound at 10 μM; [125I]-Nociceptin
T9 construct: purchased Perkin Elmer Biosignal
In short: as §1

[10] = target: T10, Human melanin-concentrating hormone (MCH1) (Homo sapiens, UniProt Q99705); assay: Radioligand binding, human melanin-concentrating hormone MCH1 membranes, FlashPlate, [125I]-S36057; conditions: compound at 10 μM; [125I]-S36057
T10 construct: purchased Perkin Elmer Biosignal
In short: as §1

[11] = target: T11, Human μ-opioid (MOP) (Homo sapiens, UniProt P35372); assay: Radioligand binding, human μ-opioid (MOP) membranes, FlashPlate, [3H]-Naloxone; conditions: compound at 10 μM; [3H]-Naloxone
T11 construct: purchased Perkin Elmer Biosignal
In short: as §1

T7 sequence (P33032 whole entry): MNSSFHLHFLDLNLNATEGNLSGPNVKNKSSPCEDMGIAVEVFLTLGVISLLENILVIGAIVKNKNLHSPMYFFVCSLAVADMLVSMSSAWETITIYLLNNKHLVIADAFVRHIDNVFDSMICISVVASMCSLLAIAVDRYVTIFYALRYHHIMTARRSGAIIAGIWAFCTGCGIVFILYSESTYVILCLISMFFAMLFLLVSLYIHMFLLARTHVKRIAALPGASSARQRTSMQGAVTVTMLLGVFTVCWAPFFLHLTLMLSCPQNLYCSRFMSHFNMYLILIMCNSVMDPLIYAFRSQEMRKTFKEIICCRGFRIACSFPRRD
T5 sequence (P41145 whole entry): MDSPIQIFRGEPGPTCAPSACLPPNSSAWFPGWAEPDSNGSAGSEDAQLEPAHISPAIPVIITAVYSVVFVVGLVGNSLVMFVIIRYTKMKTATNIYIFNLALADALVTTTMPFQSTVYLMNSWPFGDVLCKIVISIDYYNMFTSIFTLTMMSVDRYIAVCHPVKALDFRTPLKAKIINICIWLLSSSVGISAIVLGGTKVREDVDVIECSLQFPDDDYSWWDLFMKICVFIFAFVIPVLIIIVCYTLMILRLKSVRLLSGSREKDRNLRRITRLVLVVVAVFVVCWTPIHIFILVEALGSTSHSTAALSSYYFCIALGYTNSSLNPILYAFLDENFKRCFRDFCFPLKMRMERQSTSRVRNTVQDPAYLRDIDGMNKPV
T6 sequence (P25103 whole entry): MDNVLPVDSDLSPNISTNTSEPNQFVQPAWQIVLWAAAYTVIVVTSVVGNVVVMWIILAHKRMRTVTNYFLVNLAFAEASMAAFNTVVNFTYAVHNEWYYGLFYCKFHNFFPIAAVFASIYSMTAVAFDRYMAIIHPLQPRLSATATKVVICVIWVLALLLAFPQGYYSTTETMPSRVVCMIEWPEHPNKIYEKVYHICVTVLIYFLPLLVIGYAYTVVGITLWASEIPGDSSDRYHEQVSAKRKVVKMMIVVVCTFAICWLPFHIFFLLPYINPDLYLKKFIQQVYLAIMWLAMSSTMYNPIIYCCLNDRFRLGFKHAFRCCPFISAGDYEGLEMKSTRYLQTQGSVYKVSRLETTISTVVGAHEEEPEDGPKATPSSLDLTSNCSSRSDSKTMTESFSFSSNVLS
T11 sequence (P35372 whole entry): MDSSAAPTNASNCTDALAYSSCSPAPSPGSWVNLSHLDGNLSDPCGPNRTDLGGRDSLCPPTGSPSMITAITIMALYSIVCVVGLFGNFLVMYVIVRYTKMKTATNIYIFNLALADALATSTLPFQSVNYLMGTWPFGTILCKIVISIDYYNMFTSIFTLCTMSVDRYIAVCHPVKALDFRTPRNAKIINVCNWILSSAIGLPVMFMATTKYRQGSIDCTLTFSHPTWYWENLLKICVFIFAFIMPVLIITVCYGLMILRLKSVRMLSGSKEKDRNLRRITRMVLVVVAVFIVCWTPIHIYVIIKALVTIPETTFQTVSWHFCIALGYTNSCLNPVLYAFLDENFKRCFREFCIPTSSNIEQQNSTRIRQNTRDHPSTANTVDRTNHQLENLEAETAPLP
T2 sequence (P41143 whole entry): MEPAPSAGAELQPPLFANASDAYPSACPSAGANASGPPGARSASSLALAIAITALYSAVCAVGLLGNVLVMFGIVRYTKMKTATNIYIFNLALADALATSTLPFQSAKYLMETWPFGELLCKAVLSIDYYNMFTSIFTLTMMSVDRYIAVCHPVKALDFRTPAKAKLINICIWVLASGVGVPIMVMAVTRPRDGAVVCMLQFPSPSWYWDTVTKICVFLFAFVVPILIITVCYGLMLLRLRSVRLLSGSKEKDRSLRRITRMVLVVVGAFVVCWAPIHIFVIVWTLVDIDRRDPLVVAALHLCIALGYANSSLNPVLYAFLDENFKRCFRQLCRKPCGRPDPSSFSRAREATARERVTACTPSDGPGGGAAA
T3 sequence (P32245 whole entry): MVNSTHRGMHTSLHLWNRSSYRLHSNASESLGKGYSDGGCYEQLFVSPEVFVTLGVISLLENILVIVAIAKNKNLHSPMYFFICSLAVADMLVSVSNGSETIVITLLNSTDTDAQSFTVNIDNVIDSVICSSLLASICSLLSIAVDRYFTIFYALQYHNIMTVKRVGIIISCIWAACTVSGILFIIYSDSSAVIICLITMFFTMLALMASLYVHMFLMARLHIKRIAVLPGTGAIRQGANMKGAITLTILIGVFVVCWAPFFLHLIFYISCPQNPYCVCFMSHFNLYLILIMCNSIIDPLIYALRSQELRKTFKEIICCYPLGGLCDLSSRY
T10 sequence (Q99705 whole entry): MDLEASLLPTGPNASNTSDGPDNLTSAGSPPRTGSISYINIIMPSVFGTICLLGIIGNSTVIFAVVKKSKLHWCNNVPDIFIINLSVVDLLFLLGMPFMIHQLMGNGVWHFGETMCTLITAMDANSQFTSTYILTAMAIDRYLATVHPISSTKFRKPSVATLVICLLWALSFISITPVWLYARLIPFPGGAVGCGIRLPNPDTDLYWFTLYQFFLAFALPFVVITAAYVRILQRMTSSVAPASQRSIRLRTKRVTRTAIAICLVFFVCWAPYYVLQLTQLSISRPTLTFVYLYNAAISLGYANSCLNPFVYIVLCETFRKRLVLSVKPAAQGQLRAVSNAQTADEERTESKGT
T9 sequence (P41146 whole entry): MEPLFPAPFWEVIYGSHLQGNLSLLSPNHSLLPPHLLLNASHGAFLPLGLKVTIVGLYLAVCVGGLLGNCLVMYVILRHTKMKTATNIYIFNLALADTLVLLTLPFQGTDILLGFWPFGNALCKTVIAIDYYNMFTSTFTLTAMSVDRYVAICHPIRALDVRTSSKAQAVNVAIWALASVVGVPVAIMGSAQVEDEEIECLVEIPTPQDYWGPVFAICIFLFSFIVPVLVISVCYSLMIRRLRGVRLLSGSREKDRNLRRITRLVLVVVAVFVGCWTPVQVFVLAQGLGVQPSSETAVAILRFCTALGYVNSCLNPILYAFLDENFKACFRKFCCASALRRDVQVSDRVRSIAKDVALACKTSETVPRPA
T8 sequence (P41968 whole entry): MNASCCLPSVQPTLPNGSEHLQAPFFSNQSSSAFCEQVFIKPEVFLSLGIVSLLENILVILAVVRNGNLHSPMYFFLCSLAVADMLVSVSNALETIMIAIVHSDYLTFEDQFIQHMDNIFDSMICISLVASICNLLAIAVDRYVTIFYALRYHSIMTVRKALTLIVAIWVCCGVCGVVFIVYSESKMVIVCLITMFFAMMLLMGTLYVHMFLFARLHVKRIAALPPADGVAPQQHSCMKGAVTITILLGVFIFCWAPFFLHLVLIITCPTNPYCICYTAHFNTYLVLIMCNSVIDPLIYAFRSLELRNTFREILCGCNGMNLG

Compound: COCC1OC(OCc2ccccc2)C(NC(=O)CCN)C(OCc2ccccc2)C1O (stereo not drawn) [compound 172]
- A11 radioligand binding, percentage inhibition [1]: − (“−” indicates less than 50% inhibition at 10 μM)
- A1 radioligand binding, percentage inhibition [2]: − (“−” indicates less than 50% inhibition at 10 μM)
- A4 radioligand binding, percentage inhibition [3]: − (“−” indicates less than 50% inhibition at 10 μM)
- A9 radioligand binding, percentage inhibition [4]: − (“−” indicates less than 50% inhibition at 10 μM)
- A2 radioligand binding, percentage inhibition [5]: − (“−” indicates less than 50% inhibition at 10 μM)
- A8 radioligand binding, percentage inhibition [6]: + (“+” indicates greater than 50% inhibition at 10 μM)
- A5 radioligand binding, percentage inhibition [7]: − (“−” indicates less than 50% inhibition at 10 μM)
- A3 radioligand binding, percentage inhibition [8]: − (“−” indicates less than 50% inhibition at 10 μM)
- A10 radioligand binding, percentage inhibition [9]: − (“−” indicates less than 50% inhibition at 10 μM)
- A6 radioligand binding, percentage inhibition [10]: − (“−” indicates less than 50% inhibition at 10 μM)
- A7 radioligand binding, percentage inhibition [11]: − (“−” indicates less than 50% inhibition at 10 μM)

Compound: COCC1OC(OCc2ccccc2)C(NC(=O)CCNC(=N)N)C(OCc2ccccc2)C1O (stereo not drawn) [compound 173]
- A11 radioligand binding, percentage inhibition [1]: − (“−” indicates less than 50% inhibition at 10 μM)
- A1 radioligand binding, percentage inhibition [2]: − (“−” indicates less than 50% inhibition at 10 μM)
- A4 radioligand binding, percentage inhibition [3]: − (“−” indicates less than 50% inhibition at 10 μM)
- A9 radioligand binding, percentage inhibition [4]: − (“−” indicates less than 50% inhibition at 10 μM)
- A2 radioligand binding, percentage inhibition [5]: − (“−” indicates less than 50% inhibition at 10 μM)
- A8 radioligand binding, percentage inhibition [6]: + (“+” indicates greater than 50% inhibition at 10 μM)
- A5 radioligand binding, percentage inhibition [7]: − (“−” indicates less than 50% inhibition at 10 μM)
- A3 radioligand binding, percentage inhibition [8]: − (“−” indicates less than 50% inhibition at 10 μM)
- A10 radioligand binding, percentage inhibition [9]: − (“−” indicates less than 50% inhibition at 10 μM)
- A6 radioligand binding, percentage inhibition [10]: − (“−” indicates less than 50% inhibition at 10 μM)
- A7 radioligand binding, percentage inhibition [11]: − (“−” indicates less than 50% inhibition at 10 μM)

Compound: COCC1OC(OCc2ccccc2)C(NC(=O)CCCN)C(OCc2ccccc2)C1O (stereo not drawn) [compound 174]
- A11 radioligand binding, percentage inhibition [1]: − (“−” indicates less than 50% inhibition at 10 μM)
- A1 radioligand binding, percentage inhibition [2]: − (“−” indicates less than 50% inhibition at 10 μM)
- A4 radioligand binding, percentage inhibition [3]: − (“−” indicates less than 50% inhibition at 10 μM)
- A9 radioligand binding, percentage inhibition [4]: − (“−” indicates less than 50% inhibition at 10 μM)
- A2 radioligand binding, percentage inhibition [5]: − (“−” indicates less than 50% inhibition at 10 μM)
- A8 radioligand binding, percentage inhibition [6]: + (“+” indicates greater than 50% inhibition at 10 μM)
- A5 radioligand binding, percentage inhibition [7]: − (“−” indicates less than 50% inhibition at 10 μM)
- A3 radioligand binding, percentage inhibition [8]: − (“−” indicates less than 50% inhibition at 10 μM)
- A10 radioligand binding, percentage inhibition [9]: − (“−” indicates less than 50% inhibition at 10 μM)
- A6 radioligand binding, percentage inhibition [10]: − (“−” indicates less than 50% inhibition at 10 μM)
- A7 radioligand binding, percentage inhibition [11]: − (“−” indicates less than 50% inhibition at 10 μM)

Compound: COCC1OC(OCc2ccccc2)C(NC(=O)CCCNC(=N)N)C(OCc2ccccc2)C1O (stereo not drawn) [compound 175]
- A11 radioligand binding, percentage inhibition [1]: − (“−” indicates less than 50% inhibition at 10 μM)
- A1 radioligand binding, percentage inhibition [2]: − (“−” indicates less than 50% inhibition at 10 μM)
- A4 radioligand binding, percentage inhibition [3]: − (“−” indicates less than 50% inhibition at 10 μM)
- A9 radioligand binding, percentage inhibition [4]: − (“−” indicates less than 50% inhibition at 10 μM)
- A2 radioligand binding, percentage inhibition [5]: − (“−” indicates less than 50% inhibition at 10 μM)
- A8 radioligand binding, percentage inhibition [6]: + (“+” indicates greater than 50% inhibition at 10 μM)
- A5 radioligand binding, percentage inhibition [7]: − (“−” indicates less than 50% inhibition at 10 μM)
- A3 radioligand binding, percentage inhibition [8]: − (“−” indicates less than 50% inhibition at 10 μM)
- A10 radioligand binding, percentage inhibition [9]: − (“−” indicates less than 50% inhibition at 10 μM)
- A6 radioligand binding, percentage inhibition [10]: − (“−” indicates less than 50% inhibition at 10 μM)
- A7 radioligand binding, percentage inhibition [11]: − (“−” indicates less than 50% inhibition at 10 μM)

Compound: COCC1OC(OCc2ccccc2)C(NC(=O)CN)C(OCc2ccc(Cl)cc2)C1O (stereo not drawn) [compound 176]
- A11 radioligand binding, percentage inhibition [1]: − (“−” indicates less than 50% inhibition at 10 μM)
- A1 radioligand binding, percentage inhibition [2]: − (“−” indicates less than 50% inhibition at 10 μM)
- A4 radioligand binding, percentage inhibition [3]: − (“−” indicates less than 50% inhibition at 10 μM)
- A9 radioligand binding, percentage inhibition [4]: − (“−” indicates less than 50% inhibition at 10 μM)
- A2 radioligand binding, percentage inhibition [5]: − (“−” indicates less than 50% inhibition at 10 μM)
- A8 radioligand binding, percentage inhibition [6]: + (“+” indicates greater than 50% inhibition at 10 μM)
- A5 radioligand binding, percentage inhibition [7]: − (“−” indicates less than 50% inhibition at 10 μM)
- A3 radioligand binding, percentage inhibition [8]: − (“−” indicates less than 50% inhibition at 10 μM)
- A10 radioligand binding, percentage inhibition [9]: − (“−” indicates less than 50% inhibition at 10 μM)
- A6 radioligand binding, percentage inhibition [10]: − (“−” indicates less than 50% inhibition at 10 μM)
- A7 radioligand binding, percentage inhibition [11]: − (“−” indicates less than 50% inhibition at 10 μM)

Compound: COCC1OC(OCc2ccccc2)C(NC(=O)CNC(=N)N)C(OCc2ccc(Cl)cc2)C1O (stereo not drawn) [compound 177]
- A11 radioligand binding, percentage inhibition [1]: − (“−” indicates less than 50% inhibition at 10 μM)
- A1 radioligand binding, percentage inhibition [2]: − (“−” indicates less than 50% inhibition at 10 μM)
- A4 radioligand binding, percentage inhibition [3]: + (“+” indicates greater than 50% inhibition at 10 μM)
- A9 radioligand binding, percentage inhibition [4]: − (“−” indicates less than 50% inhibition at 10 μM)
- A2 radioligand binding, percentage inhibition [5]: − (“−” indicates less than 50% inhibition at 10 μM)
- A8 radioligand binding, percentage inhibition [6]: + (“+” indicates greater than 50% inhibition at 10 μM)
- A5 radioligand binding, percentage inhibition [7]: + (“+” indicates greater than 50% inhibition at 10 μM)
- A3 radioligand binding, percentage inhibition [8]: + (“+” indicates greater than 50% inhibition at 10 μM)
- A10 radioligand binding, percentage inhibition [9]: − (“−” indicates less than 50% inhibition at 10 μM)
- A6 radioligand binding, percentage inhibition [10]: − (“−” indicates less than 50% inhibition at 10 μM)
- A7 radioligand binding, percentage inhibition [11]: − (“−” indicates less than 50% inhibition at 10 μM)
